Experimental data taken from PubChem BioAssay AID463203 (Broad Institute, 2010).
The source made the active and inactive calls.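 Rule for the calls: active = more than half of replicate measurements showing over 20% loss of kinase signal relative to plate controls; inconclusive = some but at most half of replicates over 20% loss; inactive = no replicate over 20% signal loss.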

Target: Glycogen synthase kinase-3 alpha (Homo sapiens) (UniProt P49840)
Experiment: concentration-response blocking of human GSK3A – biochemical, luminescence, cell-free homogeneous, retest, dose response (AID 463203)
Conditions: GSK-3 alpha enzyme, ADP-Glo luminescence, 60 min

Glycogen synthase kinase-3 alpha (Homo sapiens), sequence (P49840 whole entry, looked up): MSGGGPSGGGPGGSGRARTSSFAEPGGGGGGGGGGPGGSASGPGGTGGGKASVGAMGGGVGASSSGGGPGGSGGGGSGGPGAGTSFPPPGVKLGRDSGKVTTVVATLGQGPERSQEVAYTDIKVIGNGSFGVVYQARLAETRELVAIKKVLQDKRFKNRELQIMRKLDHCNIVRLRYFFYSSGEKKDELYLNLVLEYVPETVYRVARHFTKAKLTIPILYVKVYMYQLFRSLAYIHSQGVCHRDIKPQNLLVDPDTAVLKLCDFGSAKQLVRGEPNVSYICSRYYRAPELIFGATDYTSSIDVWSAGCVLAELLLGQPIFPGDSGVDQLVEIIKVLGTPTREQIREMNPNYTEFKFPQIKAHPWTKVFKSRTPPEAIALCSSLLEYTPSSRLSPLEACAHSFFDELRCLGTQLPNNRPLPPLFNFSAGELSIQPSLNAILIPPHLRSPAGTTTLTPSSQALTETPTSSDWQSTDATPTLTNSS

Compound	AC50
Fc1ccccc1/C=N/Nc1cc(N2CCCCC2)ncn1	> 30 µM (inactive)
CC(=O)Nc1ccc(Nc2ncnc(N)c2[N+](=O)[O-])cc1	> 30 µM (inactive)
Cc1nc(SCC(=O)NCC2CCCO2)c2c3c(sc2n1)CCC3 (configuration not stated)	> 30 µM (inactive)
CSc1ccc(CN2CCN(Cc3ccc([N+](=O)[O-])cc3)CC2)cc1	> 30 µM (inactive)
CC(=O)Nc1ccc(OC(=O)CC2SC(=O)NC2=O)cc1 (configuration not stated)	> 30 µM (inactive)
COc1cc(NC(=O)c2nnn(Cc3ccc(SC)cc3)c2N)cc(OC)c1	13.6 µM
Cc1ccc(NC(=S)Nc2ccc3cn[nH]c3c2)c(C)c1	> 30 µM (inactive)
Cc1cc(=O)[nH]c2ccccc12	> 30 µM (inactive)
Nc1nonc1-n1nnc(C(=O)N/N=C/c2ccco2)c1-c1ccccc1	18.5 µM
Cc1cccc(N=c2oc3cc(O)ccc3cc2C(N)=O)c1	5.52 µM
Fc1cccc(/C=N/Nc2cc(N3CCOCC3)ncn2)c1	> 30 µM (inactive)
COc1cccc(Nc2nc(N)c([N+](=O)[O-])c(NCc3ccccc3)n2)c1	13.4 µM
O=C(O)Cn1c(=O)c2c3c(sc2n(Cc2ccccc2)c1=O)CCCC3	> 30 µM (inactive)
Cc1onc(-c2ccccc2Cl)c1C(=O)Nc1cccc(-c2nc3ncccn3c2C)c1	> 30 µM (inactive)
CN(Cc1ccccc1)c1ncnc(N)c1[N+](=O)[O-]	18.8 µM
O=C(O)CN1C(=O)C2C3CC(C2C1=O)C1C(c2ccccc2)c2sc(=O)[nH]c2SC31 (configuration not stated)	> 30 µM (inactive)
O=C(N/N=C/c1ccc(Cl)c(Cl)c1)c1ccc2nc[nH]c2c1	> 30 µM (inactive)
CCc1ccc(C2CC(c3ccc(F)cc3)Nc3nc(N)nn32)cc1 (configuration not stated)	> 30 µM (inactive)
COc1ccc(-c2cc(C(=O)N3CCN(c4ccccc4)CC3)no2)cc1OC	> 30 µM (inactive)
COc1ccc(SCCN2CC[C@@H](C(C)(C)C)CCC2=O)cc1	23.6 µM
Cc1[nH]nc(NCCO)c1[N+](=O)[O-]	> 30 µM (inactive)
Cc1ccc(C2C(C#N)=C(N)Oc3n[nH]c(-c4cccnc4)c32)o1 (configuration not stated)	> 30 µM (inactive)

Compound	AC50
Clc1ccc(N/N=C/c2ccncc2)cc1Cl	> 30 µM (inactive)
CCOC(=O)Cc1csc(NC(=O)C2CCCN(S(=O)(=O)c3cnc[nH]3)C2)n1 (configuration not stated)	> 30 µM (inactive)
CC(=O)Nc1n[nH]c(-c2ccc(C)cc2)c1C	> 30 µM (inactive)
CCOC(=O)CSc1nc(C)[nH]c1[N+](=O)[O-]	> 30 µM (inactive)
CS(=O)(=O)Nc1ccc(-c2cc(/C=C3\SC(N)=NC3=O)c[nH]c2=O)cc1	7.53 µM
CN(Cc1c(C(=O)N/N=C/c2ccc(O)cc2)nnn1-c1nonc1N)c1ccccc1	0.243 µM
CCOc1cc(C(c2c(C)[nH][nH]c2=O)c2c(C)[nH][nH]c2=O)ccc1O	> 30 µM (inactive)
CCOC(=O)c1c(-c2cccc([N+](=O)[O-])c2)csc1N	6.81 µM
Cc1cccc(-c2nnc3n2N=C(c2ccc(Br)cc2)CS3)c1	> 30 µM (inactive)
CCCC(=O)NC(=S)Nc1cccc(C(C)=O)c1	> 30 µM (inactive)
O=C(NCCN1CCN(Cc2ccccc2Cl)CC1)Nc1ccccc1	> 30 µM (inactive)
Nc1n[nH]c2cc(=O)n(-c3ccc(Cl)cc3)nc12	18.9 µM
Cc1ccc2nc(-c3ccncc3)[nH]c2c1	> 30 µM (inactive)
CC(=O)O[C@@H]1[C@@H](O)[C@@H](O)[C@H](Oc2c(-c3ccc(O)cc3)oc3c(CC=C(C)C)c(O)cc(O)c3c2=O)O[C@H]1C	14.4 µM
Cc1cc(=O)[nH]c2c(C)c(N)ccc12	> 30 µM (inactive)
CN1C(=O)N(C)C2(c3ccccc3)Nn3c(s/c(=C/c4ccccc4)c3=O)=NC12c1ccccc1 (configuration not stated)	> 30 µM (inactive)
C/C(=N\NC(=O)c1nnn(-c2nonc2N)c1-c1cccs1)c1cccc(O)c1	1.42 µM
COc1ccc(S(=O)(=O)Nc2ccc(S(=O)(=O)Nc3nc(C)cc(C)n3)cc2)cc1OC	> 30 µM (inactive)
CCC(=NCc1cccnc1)c1c(O)n(C2CCCCC2)c(=O)[nH]c1=O	> 30 µM (inactive)
Cc1ccc(NC(=O)CSCc2ccco2)cc1	> 30 µM (inactive)
COc1ccc(OCc2nc(N)nc(Nc3ccccc3OC)n2)cc1	> 30 µM (inactive)
CC1=Nn2c(nc3sc4c(c3c2=O)CCCC4)SC1	> 30 µM (inactive)

Compound	AC50
CCN(CC)c1nc(N)c([N+](=O)[O-])c(NCCO)n1	> 30 µM (inactive)
Cc1cccc(C)c1OC(=O)Cc1ccccc1	> 30 µM (inactive)
Cc1cnn(-c2cc(N/N=C/c3ccccc3)ncn2)c1	> 30 µM (inactive)
COc1ccc(-c2nnc(-c3ccccc3O)o2)cc1	> 30 µM (inactive)
NC(=O)c1cc([N+](=O)[O-])ccc1NCc1ccc(O)cc1	4.32 µM
CSc1ccc(-c2cc(=O)c3ccccc3o2)cc1	> 30 µM (inactive)
CN1/C(=C\C=C2/SC(=S)NC2=O)C(C)(C)c2ccccc21	12.7 µM
CC(=S)/C=C1\Sc2ccccc2N1C	> 30 µM (inactive)
O=c1c2ccccc2oc2ccc(NCCCn3ccnc3)cc12	> 30 µM (inactive)
O=c1ccc2ccccc2o1	> 30 µM (inactive)
COc1ccc(/C=C2\Oc3cc(OCC(=O)N4CCC[C@H]4C(=O)O)ccc3C2=O)cc1OC	> 30 µM (inactive)
Cc1ccc(Sc2ccc(NC(=O)CCl)cc2)c(C)c1	> 30 µM (inactive)
O=[N+]([O-])c1cc(S(=O)(=O)N2CCCC2)ccc1NCCCN1CCOCC1	> 30 µM (inactive)
S=C(NCc1ccccc1)Nc1cccc2cnccc12	> 30 µM (inactive)
COc1ccccc1OCC(=O)Nc1sc2c(c1C(N)=O)CCC2	> 30 µM (inactive)
CCCNc1nc(Cl)nc(Nc2ccc(Cl)cc2)n1	> 30 µM (inactive)
Cc1cc(-c2ccccc2)c2c3c(c(-c4ccccc4)n2n1)c(=O)n(C)c(=O)n3C	> 30 µM (inactive)
CCOC(=O)C1=C(O)/C(=C\c2sccc2C)N=C1C	> 30 µM (inactive)
COc1cc(/C=C/c2nc(N)nc(-c3ccccc3O)n2)cc(OC)c1OC	> 30 µM (inactive)
c1ccc2sc(-c3ccc4c(c3)OCO4)nc2c1	> 30 µM (inactive)
C=CCN=C1NN=C(c2ccc3c(c2)OCCO3)CS1	> 30 µM (inactive)
COc1cc(/C=N/NC(=O)c2cnccn2)ccc1O	> 30 µM (inactive)

Compound	AC50
CC(C)N=C(NC#N)SCc1ccccc1F	> 30 µM (inactive)
CCOC(=O)c1cc(CC)sc1NC(=O)COC(=O)c1ccccn1	> 30 µM (inactive)
O=C(NCCN1CCc2ccccc2C1)Nc1ccc(F)cc1	> 30 µM (inactive)
CCN1C(=O)/C(=C\c2ccco2)C(C(=O)OC)=C1C	> 30 µM (inactive)
COc1cccc(-n2c(SCC(N)=O)nnc2-c2ccco2)c1	> 30 µM (inactive)
CCN1C(=O)/C(=C\c2cccs2)C(C(=O)OC)=C1C	> 30 µM (inactive)
CCN1CCN(c2nc(N)c([N+](=O)[O-])c(Nc3ccc(C)cc3)n2)CC1	> 30 µM (inactive)
COc1ccc(-c2nc(NC(=O)C3CC(=O)N(c4ccc5c(c4)OCCO5)C3)sc2C)cc1 (configuration not stated)	> 30 µM (inactive)
Cn1c(=O)c2c([nH]c(=O)n2C)n(Cc2ccccc2)c1=O	> 30 µM (inactive)
Cc1ccc2nc(-c3cccc(N)c3)[nH]c2c1	> 30 µM (inactive)
O=c1[nH]ncc(N/N=C\c2ccncc2)c1Cl	25.4 µM
CCN1/C(=C/C(C)=O)Sc2ccc(OC)cc21	16.5 µM
Cc1noc(C)c1COc1ccc2ccc(=O)oc2c1	> 30 µM (inactive)
CCOC(=O)c1nnn(-c2nonc2N)c1-c1cccc2ccccc12	27.9 µM
CN1CCc2nc3sc(C#N)c(N)c3c(-c3cccs3)c2C1	0.675 µM
O=C(O)c1ccc(Cl)c(NC(=O)C2CCCN2S(=O)(=O)c2cccc3nsnc23)c1 (configuration not stated)	19.1 µM
c1cncc(-c2nc3ccccc3[nH]2)c1	> 30 µM (inactive)
O=c1[nH]c2c(s1)C(c1ccc(O)cc1)C1C3CCC(C3)C1S2 (configuration not stated)	0.649 µM
Cc1ccc(C(=O)Nc2cccc(C(=O)NC3CCCCC3)c2)cc1	> 30 µM (inactive)
Cc1c(C(=O)N2CCOCC2)oc2ccc(S(=O)(=O)N3CCCCCC3)cc12	> 30 µM (inactive)
COc1ccccc1N=c1oc2cc(O)ccc2cc1C(=O)NCC1CCCO1 (configuration not stated)	> 30 µM (inactive)
Cc1ccc2nc(C3CCCCC3)[nH]c2c1	> 30 µM (inactive)

Compound	AC50
Cc1cccc(-n2nc(C)c3c2NC2=C(C(=O)CCC2)C3c2ccccn2)c1 (configuration not stated)	> 30 µM (inactive)
S=C(Nc1ccc2c(c1)OCCO2)Nc1ccccc1Cl	> 30 µM (inactive)
O=[N+]([O-])c1ccc(NC2CCCC2)cc1	> 30 µM (inactive)
CC(CC(=O)Nc1ncc([N+](=O)[O-])s1)c1ccccc1 (configuration not stated)	5.94 µM
Cc1ccc2nc(-c3ccccc3N)[nH]c2c1	> 30 µM (inactive)
Cc1cc(=O)[nH]c2cc(O)ccc12	> 30 µM (inactive)
CS(=O)(=O)Nc1ccc(-c2ccc(/C=C3\SC(N)=NC3=O)o2)cc1	1.02 µM
CC(C)(C)NCC(O)COc1ccccc1C(C)(C)C (configuration not stated)	> 30 µM (inactive)
CCC(=O)NCCNc1ccc([N+](=O)[O-])cn1	> 30 µM (inactive)
COc1cccc(C2C(C(=O)OC(C)C)=C(C)Nc3ncnn32)c1 (configuration not stated)	15.2 µM
Nc1c(C(=O)O)ccc2c1C(=O)c1ccccc1C2=O	7.87 µM
Cc1nc2ncnn2c(C)c1Cc1cccc(F)c1	> 30 µM (inactive)
Cc1cccc(-c2nnc3n2N=C(c2ccccc2)CS3)c1	> 30 µM (inactive)
Cc1ccc(CSc2ccc3nnc(-c4cccnc4)n3n2)cc1	> 30 µM (inactive)
CC(=O)c1cc(-c2ccc(F)cc2)n(CCC(=O)Nc2cc(C)[nH]n2)c1C	11.9 µM
CCc1nnc(NS(=O)(=O)c2ccc(N/C=C(\C=O)c3nc4cc(Cl)ccc4o3)cc2)s1	9.24 µM
COc1ccc(-c2cc(C(F)(F)F)nc(SCC(=O)NCc3cccs3)n2)cc1OC	> 30 µM (inactive)
C=CCn1cnc2c(c1=O)c1nc3ccccc3nc1n2/N=C/c1cc(OC)c(OC)c(OC)c1	> 30 µM (inactive)
COc1ccc(NC(=O)CN(C)S(=O)(=O)c2cnc[nH]2)cc1	> 30 µM (inactive)
